Data from US20110230359A1, “LABEL-FREE ON-TARGET PHARMACOLOGY METHODS” (priority 2010, published 2011).

Columns and labels:
GPR109A = experiment: modulation profiling DMR assay, marker nicotinic acid, A431 cells; format: cell-based, human; conditions: 10 μM salbutamol pretreatment ~1 hr, 1 μM nicotinic acid
EGFR = experiment: modulation profiling DMR assay, marker EGF, A431 cells; format: cell-based, human; conditions: 10 μM salbutamol pretreatment ~1 hr, 32 nM epidermal growth factor

SMILES: CC(C)(C)NCC(O)c1ccc(O)c(CO)c1 (centres unmarked) [salbutamol]
- modulation of nicotinic acid DMR (P-DMR) (GPR109A): potentiates
- modulation of EGF DMR (P-DMR and N-DMR) (EGFR): little impact
